Source: patent publication US20030134353A1, “Recombinant dimorphic fungal cell” (Bioteknologisk Institut, priority 2001, published 2003)

Key:
M. circinelloides = conditions: van Heeswijck et al., 1988; acid pH (3.2 or 4.5); cited from earlier work
pkaR expression = experiment: Northern blot analysis of pkaR expression during aerobic growth after dbcAMP addition; type: cell-based, M. circinelloides; conditions: for Total Counts (pkaR mRNA, background subtracted): aerobic growth
Method: M. circinelloides syn. racemosus R7B (ATCC 90680), a leucine auxotrophic strain of ATCC1216b, was used as a recipient for transformation experiments and for expression studies. Cultures were grown at 28° C. in either YPG (Bartnicki-Garcia and Nickerson, 1962), YNB (Lasker and Borgia, 1980), Vogel's medium supplemented with 1.5 g glutamic acid per litre (Hoekstra, 1996) or SIV medium with 1.5 g glutamic acid per litre in place of L-aspargine (Eslava and Alvarez, 1996). Vogel's and SIV media were supplemented with 2 g casamino acids (Difco, Detroit, Mich., USA) per litre. All media were supplemented with 1 mg/L niacin amide and 1 mg/L thiamine chloride. When appropriate, 20 mg/L leucine was added to allow for the growth of strain R7B. For the analysis of pkaR expression, 5 mM dbcAMP (Sigma) was added to aerobic growing cultures during exponential growth. The BBL GasPak system (Becton Dickinson, Sparks, Md., USA) was used for anaerobic incubation of strains on solid medium. E. coli DH5α was used for DNA manipulations.
RNA isolation was carried out using a FastRNA kit (BIO101 Inc., CA, USA) and extraction with acid Phenol:chloroform (Sigma). For Northern blot analysis, total RNA was loaded onto formaldehyde containing agarose gel, subjected to electrophoresis, transferred to GeneScreen membrane (Du Pont) and hybridised as described (Arnau et al., 1996). Expression levels were meassured using a Cyclone Storage Phosphor System (Packard) and the OptiQuant image analysis software. A linear dynamic range of 5 orders of magnitude with only a 5% standard deviation is possible with the above apparatus. Dilution series of the RNA preparations (typically 20, 10 and 5 μg total RNA per sample) were used to estimate induction levels. Primer extension was carried out using a radioactively end-labelled primer; complementary to position 98-78 downstream of the pkaR ATG start codon. A sequence ladder was obtained using the same primer and pEUKA4-pkaR DNA as template using the Thermo Sequenase Radiolabeled Terminator Cycle Sequencing Kit (USB-Amersham). Probe labelling was performed using Ready-To-Go DNA Labelling Beads (Amersham Pharmacia Biotech). Unincorporated nucleotides were removed using a NICK column (Pharmacia).
In a complementary study, the expression of pkaR was followed during aerobic (filamentous) growth before and after the addition of dbcAMP. This cAMP analogue is membrane permeable and its addition results in PKA activation.

[1] = test system: Mucor circinelloides strain R7B; experiment: Screening of antibiotic sensitivity on YNB agar at pH 6.0; type: cell-based; conditions: YNB agar pH 6.0, 4 days at 28° C.
Method: Spores of Mucor circinelloides strain R7B were plated on to YNB agar pH 6.0 supplemented with leucine (upper left plate in all panels) or the same medium supplemented with 50, 100 or 250 μg/ml of the antibiotic (geneticin, kanamycin, hygromycin B or neomycin) as indicated in each panel. After 4 days at 28° C., plates were examined and photographed.
However, the conditions used for the above screening—especially the acid pH used (3.2 or 4.5)—may result in the inactivation of the antibiotic. Therefore, we performed an initial screening of antibiotic sensitivity using pH 6.0. Under these conditions, M. circinelloides is sensitive to all four antibiotic tested.

**Q.** With `CCCCNC(=O)n1c(NC(=O)OC)nc2ccccc21` [benomyl] as the compound, how does the “Sensitivity of M. circinelloides to antibiotic as reported” value (from here on “Sensitivity of M. circinelloides”) (M. circinelloides) read?
**A.** insensitive

**Q.** For `CCCC(=O)Nc1ncnc2c1ncn2[C@@H]1O[C@@H]2COP(=O)(O)O[C@H]2[C@H]1OC(=O)CCC` [dbcAMP], which “Total Counts (pkaR mRNA, background subtracted)” value (“Total Counts” for short) (pkaR expression; 15 min after addition of 5 mM dbcAMP) is on record?
**A.** 951

**Q.** What about the “Total Counts” value (pkaR expression; 30 min after addition of 5 mM dbcAMP) of the same compound?
**A.** 1728

**Q.** And the “Total Counts” value (pkaR expression; 60 min after addition of 5 mM dbcAMP)?
**A.** 2235

**Q.** What about the “Total Counts” value (pkaR expression; 120 min after addition of 5 mM dbcAMP) of the same compound?
**A.** 2392

**Q.** What about the “Total Counts” value (pkaR expression; 180 min after addition of 5 mM dbcAMP) of the same compound?
**A.** 2966

**Q.** And the “Induction of pkaR expression compared to the level before dbcAMP addition” value (pkaR expression; after three hours)?
**A.** sevenfold

**Q.** With `CN[C@H]1C[C@@H](N)[C@H](O)[C@@H](O[C@@H]2O[C@H](CO)[C@H](O)[C@@H]3OC4(O[C@H]23)O[C@H]([C@@H](N)CO)[C@H](O)[C@H](O)[C@H]4O)[C@@H]1O` (some centres unmarked) [hygromycin B] as the compound, how does the “Growth of M. circinelloides on antibiotic-supplemented plates” value ([1]; 50 μg/ml antibiotic) read?
**A.** tiny colonies

**Q.** And the “Growth of M. circinelloides on antibiotic-supplemented plates” value ([1]; 100 μg/ml antibiotic)?
**A.** no growth

**Q.** Which “Sensitivity of M. circinelloides” value (M. circinelloides) does the source give for `CC[C@H]1/C=C/C=C/C[C@@H](C)[C@H](O)[C@@](C)(O)C(=O)[C@@H](C)[C@H](O)[C@@H](C)C(=O)[C@@H](C)[C@H](O)[C@@H](C)/C=C/C(=O)O[C@@H]2[C@H](C)[C@H](CC1)O[C@]1(CC[C@H](C)[C@H](C[C@@H](C)O)O1)[C@H]2C` [oligomycin] here?
**A.** insensitive

**Q.** For neomycin, which “Sensitivity of M. circinelloides” value (M. circinelloides) is on record?
**A.** insensitive
